US4690926A, “Boxazomycin A and B, new antibiotics containing benzoxazole nucleus” (Bristol-Myers Company, priority 1986, dated 1987)
≈ marks a conversion by molar mass, not a printed value.

These compounds were tested on S. epidermidis A22547. Conditions: Staphylococcus epidermidis, Nutrient agar (Eiken), kanamycin-resistant.
Format: cell-based

Compound | MIC [µg/mL]
Cc1ncc(O)c(-c2nc3c(C(N)=O)c(O)cc(C)c3o2)n1 [Boxazomycin B] | 0.2 (≈ 0.666 µM)
Cc1cc(O)c(C(N)=O)c2nc(-c3nc(CO)ncc3O)oc12 [Boxazomycin A] | 0.4 (≈ 1.26 µM)
NC[C@H]1O[C@H](O[C@H]2[C@H](O)[C@@H](O[C@H]3O[C@H](CO)[C@@H](O)[C@H](N)[C@H]3O)[C@H](N)C[C@@H]2N)[C@H](O)[C@@H](O)[C@@H]1O [Kanamycin, kanamycin, reference compound] | 25 (≈ 51.6 µM)
